Legend:
Test in all cases: competitive isoTOP-ABPP
[1] = molecular target: T1, GLUD1 Glutamate dehydrogenase 1, mitochondrial (Homo sapiens, UniProt P00367); assay type: binding; details: for R value (DMSO/fragment) for probe 1 labeling: P00367_K480; for R value (DMSO/fragment) for probe 1 labeling / isoTOP-ABPP reactivity ratio at lysine P00367_K480: 50 uM, 231 sol, in vitro; for isoTOP-ABPP ratio, lysine P00367_K480: 50 uM_231_sol_in vitro, possible other lysine P00367_K477
T1 construct: isoTOP-ABPP experiments performed in cell lysates (in vitro); endogenous in cells; host or cells: MDA-MB-231 soluble lysate
In short: (§1)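 Cell lysate (0.5 ml) was pre-treated with fragment, 50 μM for activated esters or 100 μM for guanidinylating agents, versus DMSO, then labeled 1 h at ambient temperature with 0.1 mM STP-alkyne. Light/heavy TEV tags attached by CuAAC; R = DMSO/compound MS1 peak-area ratio, median per lysine.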

[2] = molecular target: T2, KPNA2 Importin subunit alpha-2 (Homo sapiens, UniProt P52292); assay type: binding; details: for R value (DMSO/fragment) for probe 1 labeling: P52292_K459; for R value (DMSO/fragment) for probe 1 labeling / isoTOP-ABPP reactivity ratio at lysine P52292_K459: 50 uM, 231 sol, in vitro; for isoTOP-ABPP ratio, lysine P52292_K459: 50 uM_231_sol_in vitro
T2 construct: isoTOP-ABPP experiments performed in cell lysates (in vitro); endogenous in cells; host or cells: soluble proteome of human cancer cell lines (MDA-MB-231, Ramos, Jurkat)
In short: as §1

[3] = molecular target: T3, SRP54 Signal recognition particle 54 kDa protein (Homo sapiens, UniProt P61011); assay type: binding; set-up: key to isoTOP-ABPP reactivity ratio at lysine P61011_K81: R = MS1 peak area ratio, DMSO (heavy) / compound-treated (light); capped at 20; details: for R value (DMSO/fragment) for probe 1 labeling: P61011_K81; for R value (DMSO/fragment) for probe 1 labeling / isoTOP-ABPP reactivity ratio at lysine P61011_K81: 50 uM, 231 sol, in vitro; for isoTOP-ABPP ratio, lysine P61011_K81: 50 uM_231_sol_in vitro
T3 construct: isoTOP-ABPP experiments performed in cell lysates (in vitro); endogenous in cells; host or cells: soluble proteome of human cancer cell lines (MDA-MB-231, Ramos, Jurkat)
Procedure: (§2) In vitro covalent fragment treatment for isoTOP-ABPP. All compounds were made up as solutions in DMSO (100×) and were used at a final concentration of 50 μM for activated esters and 100 μM for guanidinylating agents. For each profiling sample, 0.5 ml of lysate was treated with 5 μl of the 100× compound stock solution or 5 μl of DMSO. Samples were treated with activated esters for
(§3) STP-alkyne labeling and click chemistry. For concentration-dependent reactivity measurements by isoTOP-ABPP, 0.5 ml proteome aliquots were treated at ambient temperature with 1 mM STP-alkyne 1 (5 μl of 100 mM stock in DMSO) and 0.1 mM STP alkyne 1 (5 μl of 10 mM stock in DMSO), respectively. For competitive isoTOP-ABPP, after in vitro fragment treatment (detailed above), the samples were labeled for 1 h at ambient temperature with 0.1 mM STP-alkyne 1 (5 μl of 10 mM stock in DMSO). Samples were conjugated by copper-mediated azide-alkyne cycloaddition (CuAAC) to either the light (1 mM STP-alkyne or fragment treated) or heavy (0.1 mM STP-alkyne or DMSO treated) TEV tags (10 μl of 5 mM stocks in DMSO, final concentration=100 μM) using tris(2-carboxyethyl)phosphine hydrochloride
(§4) R value calculation and processing. The ratios of light and heavy MS1 peaks for each unique peptide were quantified with a CIMAGE software using default parameters (3 MS1 acquisitions per peak and signal to noise threshold set to 2.5). For reactivity measurements by isoTOP-ABPP, the R value was calculated from the ratio of MS1 peak areas, comparing the 1 mM STP alkyne sample (light TEV tag) with the 0.1 mM STP alkyne sample (heavy TEV tag). For competitive isoTOP-ABPP, the R value was calculated from the ratio of MS1 peak areas, comparing the DMSO treated sample (heavy TEV tag) with the compound treated sample (light TEV tag). […] Ratios for unique peptide entries are calculated for each experiment; overlapping peptides with the same modified lysine (for example, different charge states, MudPIT chromatographic steps or tryptic termini) are grouped together and the median ratio is reported as the final ratio (R). The peptide ratios reported by CIMAGE were further filtered to ensure the removal or correction of low-quality ratios in each individual data set. The quality filters applied were the following: removal of half tryptic peptides; for ratios with high standard deviations from the median (90% of the median or above) the lowest ratio was taken instead of the median; removal of peptides with R=20 and only a single MS2 event triggered during the elution of the parent ion; manual annotation of all the peptides with ratios of 20, removing any peptides with low quality elution profiles that remained after the previous curation steps (only done for competitive isoTOP-ABPP).
(§5) Cross-data processing for fragment screening. For compound treated samples, biological replicates of the same condition were averaged, if the standard deviation was below 60% of the mean; otherwise, for lysines with at least one R value <4 for a particular compound, the lowest value of the ratio set was taken. For lysines, where all R values for a particular compound were ≥4, the average was reported. For peptides containing several possible modified lysines, the lysine with the highest number of quantification events was used for analysis and the remaining, redundant peptides were reported as alternative modification sites. Peptides included in the aggregate dataset (those used for further bioinformatics and statistical analyses) were required to have been quantified in 2 experiments for competitive isoTOP-ABPP. Lysines were categorized as liganded, if they had at least one ratio R≥4 (hit fragments). For liganded lysines with R=20 for all liganding events, lysines were required to have been quantified with R=20 in two separate experiments and were further required to have been quantified with R<20 in one additional experiment.

[4] = molecular target: T4, ABCE1 ATP-binding cassette sub-family E member 1 (Homo sapiens, UniProt P61221); details: for R value (DMSO/fragment) for probe 1 labeling / isoTOP-ABPP reactivity ratio at lysine P61221_K191 / isoTOP-ABPP reactivity ratio at lysine P61221_K478: 50 uM, 231 sol, in vitro; for isoTOP-ABPP ratio, lysine P61221_K191 / isoTOP-ABPP ratio, lysine P61221_K478: 50 uM_231_sol_in vitro
T4 construct: isoTOP-ABPP experiments performed in cell lysates (in vitro); endogenous in cells; host or cells: soluble proteome of human cancer cell lines (MDA-MB-231, Ramos, Jurkat)
Procedure: as §2, §3, §4, §5

[5] = molecular target: T5, HDHD3 Haloacid dehalogenase-like hydrolase domain-containing protein 3 (Homo sapiens, UniProt Q9BSH5); assay type: binding; set-up: key to isoTOP-ABPP reactivity ratio at lysine Q9BSH5_K15: R = MS1 peak area ratio, DMSO (heavy) / compound-treated (light); details: for R value (DMSO/fragment) for probe 1 labeling: Q9BSH5_K15; for R value (DMSO/fragment) for probe 1 labeling / isoTOP-ABPP reactivity ratio at lysine Q9BSH5_K15: 50 uM, 231 sol, in vitro; for isoTOP-ABPP ratio, lysine Q9BSH5_K15: 50 uM_231_sol_in vitro
T5 construct: isoTOP-ABPP experiments performed in cell lysates (in vitro); endogenous in cells; host or cells: soluble proteome of human cancer cell lines (MDA-MB-231; Ramos and Jurkat also prepared)
T5 sequence (Q9BSH5 1-251): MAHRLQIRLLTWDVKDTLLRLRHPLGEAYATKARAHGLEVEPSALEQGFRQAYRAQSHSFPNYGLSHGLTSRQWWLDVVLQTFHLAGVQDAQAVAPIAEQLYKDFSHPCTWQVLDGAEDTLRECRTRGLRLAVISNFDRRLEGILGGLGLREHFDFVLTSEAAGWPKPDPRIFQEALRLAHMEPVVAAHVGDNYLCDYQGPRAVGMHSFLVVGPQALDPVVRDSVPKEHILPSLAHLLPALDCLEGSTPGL
Procedure: as §2, §3, §4, §5

[6] = molecular target: T6, MAP1LC3B Microtubule-associated proteins 1A/1B light chain (Homo sapiens, UniProt Q9GZQ8); assay type: binding; set-up: key to isoTOP-ABPP reactivity ratio at lysine Q9GZQ8_K51: R = MS1 peak area ratio, DMSO (heavy) / compound-treated (light); details: 50 uM, 231 sol, in vitro; for R value (DMSO/fragment) for probe 1 labeling: Q9GZQ8_K51
T6 construct: isoTOP-ABPP experiments performed in cell lysates (in vitro); endogenous in cells; host or cells: soluble proteome of human cancer cell lines (MDA-MB-231; Ramos and Jurkat also prepared)
Procedure: as §2, §3, §4, §5

[7] = molecular target: T7, ABHD10 Abhydrolase domain-containing protein 10, mitochondrial (Homo sapiens, UniProt Q9NUJ1); assay type: binding; set-up: key to isoTOP-ABPP reactivity ratio at lysine Q9NUJ1_K185: R = MS1 peak area ratio, DMSO (heavy) / compound-treated (light); capped at 20; details: for R value (DMSO/fragment) for probe 1 labeling: Q9NUJ1_K185; for R value (DMSO/fragment) for probe 1 labeling / isoTOP-ABPP reactivity ratio at lysine Q9NUJ1_K185: 50 uM, 231 sol, in vitro; for isoTOP-ABPP ratio, lysine Q9NUJ1_K185: 50 uM_231_sol_in vitro
T7 construct: endogenous in cells; host or cells: MDA-MB-231 lysate
T7 sequence (Q9NUJ1 53-306): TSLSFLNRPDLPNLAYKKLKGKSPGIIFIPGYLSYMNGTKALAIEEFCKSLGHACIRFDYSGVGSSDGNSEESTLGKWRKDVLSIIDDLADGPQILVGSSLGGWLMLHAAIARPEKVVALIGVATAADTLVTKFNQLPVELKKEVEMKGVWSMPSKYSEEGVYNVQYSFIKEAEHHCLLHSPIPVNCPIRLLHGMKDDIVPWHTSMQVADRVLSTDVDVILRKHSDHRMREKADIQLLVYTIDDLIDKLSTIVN
Procedure: as §2, §3, §4, §5

T3 sequence (P61011 whole entry, the tested form may be a part): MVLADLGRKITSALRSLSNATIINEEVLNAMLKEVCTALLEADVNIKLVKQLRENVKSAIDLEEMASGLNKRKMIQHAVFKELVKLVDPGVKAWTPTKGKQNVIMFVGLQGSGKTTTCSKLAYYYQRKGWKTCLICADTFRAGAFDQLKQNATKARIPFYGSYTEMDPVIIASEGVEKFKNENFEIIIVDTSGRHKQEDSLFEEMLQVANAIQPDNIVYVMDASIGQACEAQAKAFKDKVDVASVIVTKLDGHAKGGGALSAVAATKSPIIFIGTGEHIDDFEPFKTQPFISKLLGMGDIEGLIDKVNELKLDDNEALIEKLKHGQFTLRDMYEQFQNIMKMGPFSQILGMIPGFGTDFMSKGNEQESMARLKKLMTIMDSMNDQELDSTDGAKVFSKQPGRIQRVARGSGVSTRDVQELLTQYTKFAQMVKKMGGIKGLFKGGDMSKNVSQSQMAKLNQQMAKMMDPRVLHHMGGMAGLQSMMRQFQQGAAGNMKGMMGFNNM
T1 sequence (P00367 54-558): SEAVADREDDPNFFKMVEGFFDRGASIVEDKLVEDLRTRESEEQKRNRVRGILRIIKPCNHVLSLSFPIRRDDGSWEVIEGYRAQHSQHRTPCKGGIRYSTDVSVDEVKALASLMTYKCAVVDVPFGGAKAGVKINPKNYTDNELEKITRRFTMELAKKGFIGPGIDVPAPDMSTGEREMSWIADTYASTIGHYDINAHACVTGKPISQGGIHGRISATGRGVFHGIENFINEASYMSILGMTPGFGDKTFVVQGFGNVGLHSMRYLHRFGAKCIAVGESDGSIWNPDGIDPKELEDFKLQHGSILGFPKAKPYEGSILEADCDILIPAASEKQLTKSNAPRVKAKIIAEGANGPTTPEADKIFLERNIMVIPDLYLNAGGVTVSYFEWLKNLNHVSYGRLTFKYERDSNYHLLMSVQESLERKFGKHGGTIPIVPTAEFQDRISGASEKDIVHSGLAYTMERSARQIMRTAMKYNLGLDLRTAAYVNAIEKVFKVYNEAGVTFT

Compound	isoTOP-ABPP reactivity ratio at lysine P00367_K480 [1]	isoTOP-ABPP reactivity ratio at lysine P52292_K459 [2]	isoTOP-ABPP reactivity ratio at lysine P61011_K81 [3]	isoTOP-ABPP reactivity ratio at lysine P61221_K191 [4]	isoTOP-ABPP reactivity ratio at lysine P61221_K478 [4]	isoTOP-ABPP reactivity ratio at lysine Q9BSH5_K15 [5]	isoTOP-ABPP reactivity ratio at lysine Q9GZQ8_K51 [6]	isoTOP-ABPP reactivity ratio at lysine Q9NUJ1_K185 [7]	further results
O=C(Oc1c(F)c(F)c(F)c(F)c1F)C(c1ccccc1)c1ccccc1 [fragment 20, Pentafluorophenyl 2,2-diphenylacetate]									R value (DMSO/fragment) for probe 1 labeling [1]: 1.4; R value (DMSO/fragment) for probe 1 labeling [2]: 5.5; R value (DMSO/fragment) for probe 1 labeling [3]: 1.0; R value (DMSO/fragment) for probe 1 labeling ([4]; P61221_K191): 0.9; R value (DMSO/fragment) for probe 1 labeling ([4]; P61221_K478): 1.2; R value (DMSO/fragment) for probe 1 labeling [5]: 1.1; R value (DMSO/fragment) for probe 1 labeling [6]: 0.9; R value (DMSO/fragment) for probe 1 labeling [7]: 1.1
Cn1cc(CC(=O)Oc2c(F)c(F)c(F)c(F)c2F)c2ccccc21 [fragment 22, Pentafluorophenyl 2-(1-methyl-1H-indol-3-yl)acetate]									R value (DMSO/fragment) for probe 1 labeling [1]: 2.5; R value (DMSO/fragment) for probe 1 labeling [2]: 6.2; R value (DMSO/fragment) for probe 1 labeling [3]: 0.9; R value (DMSO/fragment) for probe 1 labeling ([4]; P61221_K191): 1.5; R value (DMSO/fragment) for probe 1 labeling ([4]; P61221_K478): 1.6; R value (DMSO/fragment) for probe 1 labeling [5]: 1.1; R value (DMSO/fragment) for probe 1 labeling [6]: 1.2; R value (DMSO/fragment) for probe 1 labeling [7]: 1.5
O=C(Oc1c(F)c(F)c(F)c(F)c1F)c1ccc2ccccc2n1 [fragment 25, Pentafluorophenyl quinoline-2-carboxylate]	1.2	1.3	0.8	1.7	1.5	4.0	0.9	1.5	
O=C(CCc1coc2cc(F)ccc2c1=O)Oc1c(F)c(F)c(F)c(F)c1F [fragment 26, Pentafluorophenyl 3-(7-fluoro-4-oxo-4H-chromen-3-yl)propanoate]	1.6	8.2	1.0	1.4	1.3	3.4	1.2	1.5	
CCn1cc(C(=O)Oc2c(F)c(F)c(F)c(F)c2F)c(=O)c2ccc(C)nc21 [fragment 28, Pentafluorophenyl 1-ethyl-7-methyl-4-oxo-1,4-dihydro-1,8-naphthyridine-3-carboxylate]	1.0	1.3	0.8		1.0	13.8	1.0	1.2	
O=C(CCc1cn(-c2ccccc2)nc1-c1ccccc1)Oc1ccc([N+](=O)[O-])cc1[N+](=O)[O-] [fragment 29, 2,4-Dinitrophenyl 3-(1,3-diphenyl-1H-pyrazol-4-yl)propanoate]	1.9	2.0	1.1	1.0	1.2	20.0	0.8	1.3	
O=C(ON1C(=O)CCC1=O)c1cc(C(F)(F)F)cc(C(F)(F)F)c1 [fragment 46, 3,5-Bis(trifluoromethyl)benzoic acid NHS ester]									isoTOP-ABPP ratio, lysine P00367_K480 [1]: 1.5; isoTOP-ABPP ratio, lysine P52292_K459 [2]: 1.4; isoTOP-ABPP ratio, lysine P61011_K81 [3]: 0.9; isoTOP-ABPP ratio, lysine P61221_K191 [4]: 20.0; isoTOP-ABPP ratio, lysine P61221_K478 [4]: 11.4; isoTOP-ABPP ratio, lysine Q9BSH5_K15 [5]: 1.4; isoTOP-ABPP ratio, lysine Q9NUJ1_K185 [7]: 1.2
NC(=O)c1cc(C(F)(F)F)cc(C(F)(F)F)c1 [fragment 51, reference compound]									isoTOP-ABPP ratio, lysine P00367_K480 [1]: 1.5; isoTOP-ABPP ratio, lysine P52292_K459 [2]: 0.9; isoTOP-ABPP ratio, lysine P61011_K81 [3]: 0.7; isoTOP-ABPP ratio, lysine P61221_K191 [4]: 1.0; isoTOP-ABPP ratio, lysine P61221_K478 [4]: 0.9; isoTOP-ABPP ratio, lysine Q9BSH5_K15 [5]: 0.8; isoTOP-ABPP ratio, lysine Q9NUJ1_K185 [7]: 1.0

Source: patent US20210255193A1, “LYSINE REACTIVE PROBES AND USES THEREOF” (The Scripps Research Institute, priority 2017, published 2021)
